Source: US20130029989A1, “TOPICAL TREATMENTS FOR PAIN” (The Royal Institution for the Advancement of …, priority 2010, published 2013)

How the values were obtained:
Type in all cases: in vivo, rat
[1] = test system: CPIP rats; test: Mechanical allodynia (von Frey paw withdrawal threshold) after topical ointment in CPIP rats (model of CRPS-I); conditions: for anti-allodynic effect (PWT to von Frey hair stimulation): single drug; for effectiveness of the agent when administered topically in the combinations: apraclonidine 0.005%, clonidine 0.0075%, lisofylline 0.0078%-0.075%, pentoxifylline 0.3 or 0.6%, linsidomine 0.4%
Description: Ointment type analgesic formulations containing the above-mentioned drugs were prepared according to standard pharmaceutical procedures. The ointments were formulated using a composite, water-soluble polyethylene glycol base system employing carbowax (PEG 3350) and PEG 400 in the ratio of 60:40 respectively. The water-soluble base system was selected due to its non-sticky nature. Briefly, the required amounts of the active ingredients were first weighed out and then added to the already molten base in decreasing order of their melting points, and stirred well. After uniform melting, the formulation was brought to room temperature to ensure proper solidification. A standard amount of 150 mg (mean±SEM=150.88+2.7 mg) of the ointment was used for all rat hind paw applications throughout the experimental procedure, and half this amount for mouse hind paw application.
(§1) Chronic post-ischemia pain (CPIP) was generated following exposure to prolonged hind paw ischemia and reperfusion (Coderre et al., Pain, 112(1):94-105, 2004). Briefly, rats were anesthetized over a 3 h period with a bolus (55 mg/kg, i.p.) followed by chronic i.p. infusion of sodium pentobarbital for 2 h at a rate of 0.15 mL/h. After induction of anesthesia, a Nitrile 70 Durometer O-ring (O-rings West, Seattle, Wash.) with 5.5 mm internal diameter was placed around the rat's left hind limb proximal to the ankle joint. The tight-fitting O-rings produce a complete blockade of arterial blood flow as measured using laser Doppler flowmetry. The ring was then left in place for 3 h. The termination of sodium pentobarbital anesthesia was timed so that the rats recovered fully within 30-60 min following reperfusion. Rats were tested between 2 and 14 days post-IR injury.
(§2) The plantar surface of the ipsilateral hind paw was tested for mechanical allodynia in CPIP and CCI rats. Nylon monofilaments were applied in either ascending (after negative response) or descending (after positive response) force as necessary to determine the filament closest to the threshold of response. Each filament was applied for 10 s or until a flexion reflex occurred. The minimum stimulus intensity was 1 g and the maximum was 15 g. Based on the response pattern, and the force of the final filament (5th stimulus after first direction change), the 50% threshold (grams) was calculated as (10[Xf+kδ])/10000 where Xf=filament number of the final von Frey hair used, k=value for the pattern of positive/negative responses and δ=mean difference in log unit between stimuli (here, δ=0.220, for more details see Chaplan et al., J. Neurosci. Methods, 53(1):55-63, 1994). Mechanical sensitivities were assessed prior to and following several pharmacological treatments.
The topical formulations containing a nitric oxide donor, an α2-adrenergic agonist or a phosphatidic acid inhibitor were tested for their anti-allodynic effects either singly or in combination with each other in definite proportions at concentrations for single agents selected from the published literature in different animal models of pain. Accordingly, the rats received 150 mg of the respective ointment with the first half on the plantar aspect of their hind paws followed by the second half applied on the dorsal surface; in both cases by uniform gentle application using fingers.
In separate groups of rats, formulations containing pentoxifylline or lisofylline were tested in specific drug combinations with constant percentage amounts of clonidine, linsidomine, SNAP or apraclonidine. […] Accordingly, the formulations tested in the combination trials included clonidine (0.0075% W/W) with pentoxifylline (0.3, 0.6 and 1.2% WAN), linsidomine (0.4% W/W) with pentoxifylline (0.075, 0.15 and 0.3% W/W), linsidomine (0.4% W/W) with lisofylline (0.03175, 0.0625 and 0.075% W/W), SNAP (0.0625% W/W) with lisofylline (0.008, 0.015, 0.033 and 0.063% W/W) and apraclonidine (0.005% W/W) with lisofylline (0.0078, 0.0156 and 0.0313% W/W). […]

[2] = test system: CPIP rats; test: Laser Doppler post-occlusive reactive hyperemia in CPIP rats, systemic pentoxifylline; conditions: 25 mg/kg i.p.
Description: as §1, with “The termination of sodium pentobarbital anesthesia was timed so that the rats recovered fully within 30-60 min following reperfusion. Rats were tested between 2 and 14 days post-IR injury.” left out
Plantar blood flow and post-occlusive reactive hyperemia were measured using a laser Doppler perfusion and temperature monitor (DRT4, Moor Instruments, Wilmington, Del.) to assess microvascular function (Morales et al., Microvasc. Res., 69(1-2):17-23, 2005). […] Body temperature was monitored through a rectal thermometer coupled to a heating pad (FHC, Bowdoinham, Me.), and was maintained between 37.5° C. and 39.0° C. throughout the experiment. The plantar blood flow of the ipsilateral hind paw was monitored using a laser-emitting probe placed in between the tori pads of the hind paw, along the midline. […]

[3] = test system: sham rats; test: Laser Doppler post-occlusive reactive hyperemia in sham rats, systemic pentoxifylline; conditions: 25 mg/kg i.p.
Description: Plantar blood flow and post-occlusive reactive hyperemia were measured using a laser Doppler perfusion and temperature monitor (DRT4, Moor Instruments, Wilmington, Del.) to assess microvascular function (Morales et al., Microvasc. Res., 69(1-2):17-23, 2005). Briefly, rats (n=6 for each group) were anesthetized with bolus (1 g/kg) and maintenance doses (200 mg/kg prn) of urethane, and placed in the prone position. Body temperature was monitored through a rectal thermometer coupled to a heating pad (FHC, Bowdoinham, Me.), and was maintained between 37.5° C. and 39.0° C. throughout the experiment. The plantar blood flow of the ipsilateral hind paw was monitored using a laser-emitting probe placed in between the tori pads of the hind paw, along the midline. […] At the rate of one sample per second, an initial 10 minute baseline blood flux was recorded, followed by a 2 minute occlusion induced by pressurizing and inflating a tight fitting loop of Tygon® R 3603 tubing (outside diameter=2.38 mm, inside diameter=0.79 mm, wall thickness=0.79 mm) connected to an air-filled pump-driven 60 mL syringe (Model 11, Harvard Apparatus, Montreal, QC), creating a tourniquet around the ankle joint. […] Post-occlusive reactive hyperemia was monitored by continuously sampling flux at the rate of 1/sec for 2 min following the onset of reperfusion. […]

[4] = test system: CPIP rats; test: Mechanical allodynia (von Frey PWT) in CPIP rats after systemic pentoxifylline; conditions: vs vehicle
Description: as §1, with “The termination of sodium pentobarbital anesthesia was timed so that the rats recovered fully within 30-60 min following reperfusion. Rats were tested between 2 and 14 days post-IR injury.” left out
as §2, with “Nylon monofilaments were applied in either ascending (after negative response) or descending (after positive response) force as necessary to determine the filament closest to the threshold of response. Each filament was applied for 10 s or until a flexion reflex occurred. The minimum stimulus intensity was 1 g and the maximum was 15 g.” left out

CC(=O)N[C@H](C(=O)O)C(C)(C)SN=O [SNAP, S-nitroso-N-acetyl-penicillamine]
anti-allodynic effect (PWT to von Frey hair stimulation) ([1]; topical ipsilateral, 0.0625% W/W (lowest)): inactive
anti-allodynic effect (PWT to von Frey hair stimulation) ([1]; topical ipsilateral, all concentrations except the lowest (0.125, 0.25 and 0.5% W/W)): significant effects

Nc1cc(Cl)c(N=C2NCCN2)c(Cl)c1 [apraclonidine]
effectiveness of the agent when administered topically in the combinations [1]: highly effective
anti-allodynic effect (PWT to von Frey hair stimulation) ([1]; topical ipsilateral, 0.005% W/W (lowest)): inactive
anti-allodynic effect (PWT to von Frey hair stimulation) ([1]; topical ipsilateral, all concentrations except the lowest (0.01, 0.02 and 0.04% W/W)): effective against mechanical allodynia

Clc1cccc(Cl)c1N=C1NCCN1 [clonidine]
effectiveness of the agent when administered topically in the combinations [1]: highly effective
anti-allodynic effect (PWT to von Frey hair stimulation) ([1]; topical ipsilateral, 0.0075% W/W): inactive
anti-allodynic effect (PWT to von Frey hair stimulation) ([1]; topical ipsilateral, 0.03% W/W): significant anti-allodynic effects
anti-allodynic effect (PWT to von Frey hair stimulation) ([1]; topical ipsilateral, 0.06% W/W): significant anti-allodynic effects

[NH-]c1c[n+](N2CCOCC2)no1 [linsidomine]
effectiveness of the agent when administered topically in the combinations [1]: highly effective
anti-allodynic effect (PWT to von Frey hair stimulation) ([1]; topical ipsilateral, 0.4% W/W): inactive
anti-allodynic effect (PWT to von Frey hair stimulation) ([1]; topical ipsilateral, 0.8% W/W, post drug vs pre-drug): significantly different from their pre-drug values
anti-allodynic effect (PWT to von Frey hair stimulation) ([1]; topical ipsilateral, 1.6% W/W, post drug vs pre-drug): significantly different from their pre-drug values

C[C@@H](O)CCCCn1c(=O)c2c(ncn2C)n(C)c1=O [lisofylline]
effectiveness of the agent when administered topically in the combinations [1]: highly effective
anti-allodynic effect (PWT to von Frey hair stimulation) ([1]; topical ipsilateral, lowest concentration 0.063% W/W): inactive
anti-allodynic effect (PWT to von Frey hair stimulation) ([1]; topical ipsilateral, the three higher concentrations (0.09, 0.125 and 0.25% W/W)): only the lowest concentration (0.063% W/W) was observed to be inactive

CC(=O)CCCCn1c(=O)c2c(ncn2C)n(C)c1=O [pentoxifylline]
effectiveness of the agent when administered topically in the combinations [1]: highly effective
anti-allodynic effect (PWT to von Frey hair stimulation) ([1]; topical ipsilateral hind paw, 5% W/W, 45 min post-application): significantly attenuated mechanical allodynia
anti-allodynic effect (PWT to von Frey hair stimulation) ([1]; topical ipsilateral, 0.6% W/W): devoid of any effect
anti-allodynic effect (PWT to von Frey hair stimulation) ([1]; topical ipsilateral, 1.2% W/W): devoid of any effect
effect on delayed post-occlusive reactive hyperemia (microvascular dysfunction) [2]: reversed
effect on normal post-occlusive reactive hyperemia [3]: no effect
allodynia (PWT to von Frey hair stimulation) ([4]; 25 mg/kg): attenuated allodynia
allodynia (PWT to von Frey hair stimulation) ([4]; 50 mg/kg): attenuated allodynia
